# In ChEMBL document CHEMBL4507329, “Data for DCP probe BTZO-1” (2021):
# Experiments:
# [1] = biological target: Serine/threonine-protein kinase N1 (Homo sapiens) (UniProt Q16512); settings: Compound concentration 1000.0 nM
# [2] = biological target: Aurora kinase A (Homo sapiens) (UniProt O14965); settings: Compound concentration 1000.0 nM
# [3] = biological target: Myosin light chain kinase, smooth muscle (Homo sapiens) (UniProt Q15746); settings: Compound concentration 1000.0 nM
# [4] = biological target: Serine/threonine-protein kinase MRCK alpha (Homo sapiens) (UniProt Q5VT25); settings: Compound concentration 1000.0 nM
# [5] = biological target: Serine/threonine-protein kinase 3 (Homo sapiens) (UniProt Q13188); settings: Compound concentration 1000.0 nM
# [6] = biological target: Dual specificity mitogen-activated protein kinase kinase 3 (Homo sapiens) (UniProt P46734); settings: Compound concentration 1000.0 nM
# Dual specificity mitogen-activated protein kinase kinase 3 (Homo sapiens), sequence (P46734 whole entry): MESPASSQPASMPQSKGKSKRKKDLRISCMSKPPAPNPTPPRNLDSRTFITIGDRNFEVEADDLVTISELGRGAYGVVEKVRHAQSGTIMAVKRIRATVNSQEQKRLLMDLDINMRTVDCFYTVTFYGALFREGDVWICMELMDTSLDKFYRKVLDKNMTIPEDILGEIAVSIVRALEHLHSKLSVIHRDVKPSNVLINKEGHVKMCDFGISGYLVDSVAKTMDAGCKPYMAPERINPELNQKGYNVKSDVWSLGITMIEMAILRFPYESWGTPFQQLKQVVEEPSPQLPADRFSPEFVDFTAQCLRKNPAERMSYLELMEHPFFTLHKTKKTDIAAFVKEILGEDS
# [7] = biological target: Serine/threonine-protein kinase WNK3 (Homo sapiens) (UniProt Q9BYP7); settings: Compound concentration 1000.0 nM
# [8] = biological target: Mitogen-activated protein kinase 4 (Homo sapiens) (UniProt P31152); settings: Compound concentration 1000.0 nM
# [9] = biological target: Serine/threonine-protein kinase 17B (Homo sapiens) (UniProt O94768); settings: Compound concentration 1000.0 nM
# [10] = biological target: Tyrosine-protein kinase JAK1 (Homo sapiens) (UniProt P23458); settings: Compound concentration 1000.0 nM
# Tyrosine-protein kinase JAK1 (Homo sapiens), sequence (P23458 whole entry): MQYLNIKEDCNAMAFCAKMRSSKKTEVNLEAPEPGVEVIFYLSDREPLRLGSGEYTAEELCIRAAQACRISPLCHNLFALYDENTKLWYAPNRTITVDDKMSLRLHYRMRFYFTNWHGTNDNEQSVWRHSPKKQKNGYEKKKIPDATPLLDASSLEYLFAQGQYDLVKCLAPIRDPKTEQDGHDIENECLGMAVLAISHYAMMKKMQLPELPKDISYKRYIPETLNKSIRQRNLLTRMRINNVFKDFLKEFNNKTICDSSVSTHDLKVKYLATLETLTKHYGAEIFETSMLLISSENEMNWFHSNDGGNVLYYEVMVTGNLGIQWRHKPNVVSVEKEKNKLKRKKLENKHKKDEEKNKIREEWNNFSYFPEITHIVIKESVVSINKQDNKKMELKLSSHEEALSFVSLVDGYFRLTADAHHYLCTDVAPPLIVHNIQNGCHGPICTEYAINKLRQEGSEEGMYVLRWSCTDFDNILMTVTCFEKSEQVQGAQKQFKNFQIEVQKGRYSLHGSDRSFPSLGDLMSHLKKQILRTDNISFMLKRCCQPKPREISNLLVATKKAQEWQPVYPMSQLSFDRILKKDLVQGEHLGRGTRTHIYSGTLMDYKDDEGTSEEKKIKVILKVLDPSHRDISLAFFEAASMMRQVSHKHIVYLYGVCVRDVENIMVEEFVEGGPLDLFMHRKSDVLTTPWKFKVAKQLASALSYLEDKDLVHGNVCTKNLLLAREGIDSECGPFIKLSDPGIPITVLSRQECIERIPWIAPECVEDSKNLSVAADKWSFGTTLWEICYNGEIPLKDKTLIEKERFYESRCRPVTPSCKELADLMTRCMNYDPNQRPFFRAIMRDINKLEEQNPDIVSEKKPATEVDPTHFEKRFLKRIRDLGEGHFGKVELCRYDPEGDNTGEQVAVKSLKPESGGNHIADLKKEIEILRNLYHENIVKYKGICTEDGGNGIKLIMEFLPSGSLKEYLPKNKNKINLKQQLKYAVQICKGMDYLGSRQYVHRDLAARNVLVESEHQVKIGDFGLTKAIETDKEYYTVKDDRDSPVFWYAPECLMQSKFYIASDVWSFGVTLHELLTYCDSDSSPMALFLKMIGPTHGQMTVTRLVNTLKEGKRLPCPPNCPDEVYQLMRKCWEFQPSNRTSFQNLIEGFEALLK
# [11] = biological target: Dual specificity protein kinase CLK1 (Homo sapiens) (UniProt P49759); settings: Compound concentration 1000.0 nM
# [12] = biological target: Cyclin-dependent kinase-like 2 (Homo sapiens) (UniProt Q92772); settings: Compound concentration 1000.0 nM
# [13] = biological target: Inhibitor of nuclear factor kappa-B kinase subunit beta (Homo sapiens) (UniProt O14920); settings: Compound concentration 1000.0 nM
# [14] = biological target: Wee1-like protein kinase 2 (Homo sapiens) (UniProt P0C1S8); settings: Compound concentration 1000.0 nM
# [15] = biological target: Rhodopsin kinase GRK7 (Homo sapiens) (UniProt Q8WTQ7); settings: Compound concentration 1000.0 nM
# Rhodopsin kinase GRK7 (Homo sapiens), sequence (Q8WTQ7 whole entry): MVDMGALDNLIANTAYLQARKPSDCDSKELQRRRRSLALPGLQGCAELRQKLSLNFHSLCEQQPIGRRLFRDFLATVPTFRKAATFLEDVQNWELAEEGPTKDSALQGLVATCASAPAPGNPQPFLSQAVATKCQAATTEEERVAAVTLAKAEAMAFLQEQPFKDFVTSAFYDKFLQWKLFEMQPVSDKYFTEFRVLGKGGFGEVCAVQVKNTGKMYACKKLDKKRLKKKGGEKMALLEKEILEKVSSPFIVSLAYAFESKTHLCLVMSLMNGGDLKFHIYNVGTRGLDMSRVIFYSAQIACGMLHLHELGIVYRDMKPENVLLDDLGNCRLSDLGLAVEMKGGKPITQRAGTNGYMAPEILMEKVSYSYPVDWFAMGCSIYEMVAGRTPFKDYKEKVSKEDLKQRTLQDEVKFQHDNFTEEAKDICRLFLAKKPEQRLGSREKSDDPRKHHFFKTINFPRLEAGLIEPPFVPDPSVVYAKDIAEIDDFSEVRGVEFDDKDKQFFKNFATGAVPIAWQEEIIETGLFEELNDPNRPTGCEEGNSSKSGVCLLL
# [16] = biological target: Homeodomain-interacting protein kinase 3 (Homo sapiens) (UniProt Q9H422); settings: Compound concentration 1000.0 nM
# [17] = biological target: GABA-A receptor; anion channel (Rattus norvegicus) (UniProt O09028+P15431+P18506+P18508+P19969+P20236+P23574+P23576+P28471+P28473+P30191+P62813+P63079+P63138+Q91ZM7+Q9ES14); settings: Compound concentration 10.0 uM
# [18] = biological target: Mitogen-activated protein kinase 9 (Homo sapiens) (UniProt P45984); settings: Compound concentration 1000.0 nM
# [19] = biological target: Inhibitor of nuclear factor kappa-B kinase subunit epsilon (Homo sapiens) (UniProt Q14164); settings: Compound concentration 1000.0 nM
# [20] = biological target: Tyrosine-protein kinase Lyn (Homo sapiens) (UniProt P07948); settings: Compound concentration 1000.0 nM
# Tyrosine-protein kinase Lyn (Homo sapiens), sequence (P07948 2-512 limits assumed): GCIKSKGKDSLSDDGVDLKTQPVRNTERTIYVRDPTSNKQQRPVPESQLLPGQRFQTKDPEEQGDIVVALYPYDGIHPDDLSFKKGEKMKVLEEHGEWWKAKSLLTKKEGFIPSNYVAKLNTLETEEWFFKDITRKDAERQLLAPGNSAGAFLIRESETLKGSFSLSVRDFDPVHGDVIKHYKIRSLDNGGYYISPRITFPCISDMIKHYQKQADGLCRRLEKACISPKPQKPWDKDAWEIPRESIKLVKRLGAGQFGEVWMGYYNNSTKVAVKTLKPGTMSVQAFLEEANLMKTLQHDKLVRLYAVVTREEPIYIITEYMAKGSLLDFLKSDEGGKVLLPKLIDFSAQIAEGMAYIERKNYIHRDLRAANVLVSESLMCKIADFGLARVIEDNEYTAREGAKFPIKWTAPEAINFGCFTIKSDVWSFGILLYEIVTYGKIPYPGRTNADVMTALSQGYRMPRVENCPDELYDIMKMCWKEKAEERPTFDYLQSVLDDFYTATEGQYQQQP
# [21] = test system: Epidermal growth factor receptor (Homo sapiens), P00533 [G719S]; settings: Compound concentration 1000.0 nM
# [22] = test system: Epidermal growth factor receptor (Homo sapiens), P00533 [G719C]; settings: Compound concentration 1000.0 nM
# [23] = test system: Phosphatidylinositol 4,5-bisphosphate 3-kinase catalytic subunit alpha isoform (Homo sapiens), P42336 [H1047L]; settings: Compound concentration 1000.0 nM
# [24] = biological target: Serine/threonine-protein kinase PAK 5 (Homo sapiens) (UniProt Q9P286); settings: Compound concentration 1000.0 nM
# [25] = biological target: Tyrosine-protein kinase CSK (Homo sapiens) (UniProt P41240); settings: Compound concentration 1000.0 nM
# Tyrosine-protein kinase CSK (Homo sapiens), sequence (P41240 2-450 limits assumed): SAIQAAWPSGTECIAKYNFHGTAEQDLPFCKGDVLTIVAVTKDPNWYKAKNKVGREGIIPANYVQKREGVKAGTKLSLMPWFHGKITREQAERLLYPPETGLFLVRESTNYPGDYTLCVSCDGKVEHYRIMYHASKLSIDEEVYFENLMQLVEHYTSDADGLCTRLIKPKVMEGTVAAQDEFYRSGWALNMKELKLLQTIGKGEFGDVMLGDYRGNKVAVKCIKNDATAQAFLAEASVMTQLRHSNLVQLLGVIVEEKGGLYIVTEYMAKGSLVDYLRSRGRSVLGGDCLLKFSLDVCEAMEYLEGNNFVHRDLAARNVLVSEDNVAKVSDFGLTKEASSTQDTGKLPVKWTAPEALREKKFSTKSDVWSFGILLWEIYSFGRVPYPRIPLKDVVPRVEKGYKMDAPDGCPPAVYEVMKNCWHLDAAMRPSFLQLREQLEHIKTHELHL
# [26] = biological target: Death-associated protein kinase 1 (Homo sapiens) (UniProt P53355); settings: Compound concentration 1000.0 nM
# [27] = test system: ALK tyrosine kinase receptor (Homo sapiens), Q9UM73 [C1156Y]; settings: Compound concentration 1000.0 nM
# [28] = biological target: Serine/threonine-protein kinase TAO2 (Homo sapiens) (UniProt Q9UL54); settings: Compound concentration 1000.0 nM
# [29] = biological target: 5'-AMP-activated protein kinase catalytic subunit alpha-2 (Homo sapiens) (UniProt P54646); settings: Compound concentration 1000.0 nM
# [30] = biological target: Proto-oncogene tyrosine-protein kinase Src (Homo sapiens) (UniProt P12931); settings: Compound concentration 1000.0 nM
# [31] = biological target: Leukocyte tyrosine kinase receptor (Homo sapiens) (UniProt P29376); settings: Compound concentration 1000.0 nM
# [32] = biological target: Aurora kinase C (Homo sapiens) (UniProt Q9UQB9); settings: Compound concentration 1000.0 nM
# [33] = biological target: Macrophage-stimulating protein receptor (Homo sapiens) (UniProt Q04912); settings: Compound concentration 1000.0 nM
# Macrophage-stimulating protein receptor (Homo sapiens), sequence (Q04912 25-304 limits assumed): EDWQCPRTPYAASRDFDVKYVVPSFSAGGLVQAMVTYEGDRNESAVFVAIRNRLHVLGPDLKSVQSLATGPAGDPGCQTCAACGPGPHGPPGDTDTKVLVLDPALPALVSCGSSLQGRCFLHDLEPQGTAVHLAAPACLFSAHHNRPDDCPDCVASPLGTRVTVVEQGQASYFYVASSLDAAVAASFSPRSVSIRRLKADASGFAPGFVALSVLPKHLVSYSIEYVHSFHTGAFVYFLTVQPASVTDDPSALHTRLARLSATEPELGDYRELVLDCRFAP
# Macrophage-stimulating protein receptor (Homo sapiens), sequence (Q04912 310-1400 limits assumed): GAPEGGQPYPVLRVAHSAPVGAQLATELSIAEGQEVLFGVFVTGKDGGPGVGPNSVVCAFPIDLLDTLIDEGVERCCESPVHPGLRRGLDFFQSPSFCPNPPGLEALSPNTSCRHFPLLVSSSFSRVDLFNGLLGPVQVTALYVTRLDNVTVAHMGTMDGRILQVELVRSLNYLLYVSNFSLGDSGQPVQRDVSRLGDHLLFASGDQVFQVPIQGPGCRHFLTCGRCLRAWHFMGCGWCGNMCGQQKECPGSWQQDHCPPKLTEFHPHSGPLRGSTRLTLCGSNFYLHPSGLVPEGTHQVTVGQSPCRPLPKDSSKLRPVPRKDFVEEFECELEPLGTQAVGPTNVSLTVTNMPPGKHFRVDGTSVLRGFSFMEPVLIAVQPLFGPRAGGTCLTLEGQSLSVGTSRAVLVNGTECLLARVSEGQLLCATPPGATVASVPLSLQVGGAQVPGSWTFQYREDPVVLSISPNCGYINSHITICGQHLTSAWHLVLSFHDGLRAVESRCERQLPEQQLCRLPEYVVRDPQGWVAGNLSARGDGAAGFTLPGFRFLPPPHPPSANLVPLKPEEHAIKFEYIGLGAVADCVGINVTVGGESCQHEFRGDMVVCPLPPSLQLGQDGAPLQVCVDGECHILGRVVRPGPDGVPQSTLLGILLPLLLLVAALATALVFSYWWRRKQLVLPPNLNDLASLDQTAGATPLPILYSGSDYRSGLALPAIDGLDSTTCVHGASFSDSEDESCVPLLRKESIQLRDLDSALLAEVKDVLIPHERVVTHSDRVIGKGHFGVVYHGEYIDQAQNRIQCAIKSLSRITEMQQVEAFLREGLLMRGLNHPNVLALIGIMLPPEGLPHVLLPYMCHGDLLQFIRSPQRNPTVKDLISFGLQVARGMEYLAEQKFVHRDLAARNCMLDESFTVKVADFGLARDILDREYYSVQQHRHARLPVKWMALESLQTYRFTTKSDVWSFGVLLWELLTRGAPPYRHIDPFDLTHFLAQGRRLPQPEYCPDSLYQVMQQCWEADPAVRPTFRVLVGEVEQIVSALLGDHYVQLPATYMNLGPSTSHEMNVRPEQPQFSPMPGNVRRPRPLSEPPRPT
# [34] = biological target: Casein kinase I isoform alpha-like (Homo sapiens) (UniProt Q8N752); settings: Compound concentration 1000.0 nM
# [35] = biological target: Ephrin type-A receptor 4 (Homo sapiens) (UniProt P54764); settings: Compound concentration 1000.0 nM
# [36] = biological target: Receptor tyrosine-protein kinase erbB-3 (Homo sapiens) (UniProt P21860); settings: Compound concentration 1000.0 nM
# [37] = biological target: Serine/threonine-protein kinase RIO1 (Homo sapiens) (UniProt Q9BRS2); settings: Compound concentration 1000.0 nM
# [38] = biological target: RAC-beta serine/threonine-protein kinase (Homo sapiens) (UniProt P31751); settings: Compound concentration 1000.0 nM
# [39] = biological target: Cyclin-dependent kinase 4 (Homo sapiens) (UniProt P11802); settings: Compound concentration 1000.0 nM
# [40] = biological target: Cyclin-dependent kinase 3 (Homo sapiens) (UniProt Q00526); settings: Compound concentration 1000.0 nM
# [41] = biological target: 5-hydroxytryptamine receptor 1B (Homo sapiens) (UniProt P28222); settings: Compound concentration 10.0 uM
# 5-hydroxytryptamine receptor 1B (Homo sapiens), sequence (P28222 whole entry): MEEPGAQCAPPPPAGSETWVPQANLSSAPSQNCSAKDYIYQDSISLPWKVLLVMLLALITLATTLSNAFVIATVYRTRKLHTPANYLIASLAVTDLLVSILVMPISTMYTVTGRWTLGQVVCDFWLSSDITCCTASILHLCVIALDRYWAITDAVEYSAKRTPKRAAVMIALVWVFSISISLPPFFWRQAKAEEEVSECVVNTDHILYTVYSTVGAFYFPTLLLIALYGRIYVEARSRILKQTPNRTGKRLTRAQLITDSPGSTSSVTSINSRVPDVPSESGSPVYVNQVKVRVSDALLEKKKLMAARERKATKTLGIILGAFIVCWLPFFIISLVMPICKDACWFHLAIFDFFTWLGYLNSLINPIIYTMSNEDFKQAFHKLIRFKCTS
# [42] = biological target: Serine/threonine-protein kinase PAK 4 (Homo sapiens) (UniProt O96013); settings: Compound concentration 1000.0 nM
# [43] = biological target: Serine/threonine-protein kinase Sgk3 (Homo sapiens) (UniProt Q96BR1); settings: Compound concentration 1000.0 nM
# [44] = biological target: Cyclin-dependent kinase 8 (Homo sapiens, UniProt P49336); settings: Compound concentration 1000.0 nM
smiles,measurement,setting,value
O=C1NC(c2ccccn2)Sc2ccccc21 (stereo not drawn) [BTZO-4],residual activity,[1],60%
same,residual activity,[2],93%
same,residual activity,[3],77%
same,residual activity,[4],84%
same,residual activity,[5],100%
same,residual activity,[6],81%
same,residual activity,[7],100%
same,residual activity,[8],86%
same,residual activity,[9],73%
same,residual activity,[10],68%
same,residual activity,[11],98%
same,residual activity,[12],76%
same,residual activity,[13],100%
same,residual activity,[14],85%
same,residual activity,[15],86%
same,residual activity,[16],86%
same,inhibition,[17],6.34%
same,residual activity,[18],100%
same,residual activity,[19],94%
same,residual activity,[20],80%
same,residual activity,[21],82%
same,residual activity,[22],87%
same,residual activity,[23],59%
same,residual activity,[24],94%
same,residual activity,[25],100%
same,residual activity,[26],100%
same,residual activity,[27],84%
same,residual activity,[28],71%
same,residual activity,[29],100%
same,residual activity,[30],85%
same,residual activity,[31],89%
same,residual activity,[32],90%
same,residual activity,[33],100%
same,residual activity,[34],89%
same,residual activity,[35],89%
same,residual activity,[36],88%
same,residual activity,[37],80%
same,residual activity,[38],92%
same,residual activity,[39],91%
same,residual activity,[40],100%
same,inhibition,[41],12.3%
same,residual activity,[42],84%
same,residual activity,[43],100%
same,residual activity,[44],78%
O=c1nc(-c2ccccn2)sc2ccccc12 [BTZO-1],residual activity,[1],77%
same,residual activity,[2],87%
same,residual activity,[3],67%
same,residual activity,[4],91%
same,residual activity,[5],94%
same,residual activity,[6],75%
same,residual activity,[7],100%
same,residual activity,[8],100%
same,residual activity,[9],80%
same,residual activity,[10],71%
same,residual activity,[11],99%
same,residual activity,[12],76%
same,residual activity,[13],100%
same,residual activity,[14],100%
same,residual activity,[15],89%
same,residual activity,[16],92%
same,inhibition,[17],55.9%
same,residual activity,[18],100%
same,residual activity,[19],100%
same,residual activity,[20],100%
same,residual activity,[21],71%
same,residual activity,[22],77%
same,residual activity,[23],76%
same,residual activity,[24],87%
same,residual activity,[25],100%
same,residual activity,[26],100%
same,residual activity,[27],100%
same,residual activity,[28],73%
same,residual activity,[29],100%
same,residual activity,[30],92%
same,residual activity,[31],99%
same,residual activity,[32],97%
same,residual activity,[33],100%
same,residual activity,[34],100%
same,residual activity,[35],100%
same,residual activity,[36],83%
same,residual activity,[37],85%
same,residual activity,[38],100%
same,residual activity,[39],100%
same,residual activity,[40],99%
same,inhibition,[41],-1.9%
same,residual activity,[42],86%
same,residual activity,[43],100%
same,residual activity,[44],36%
